Earlier results on two molecules are cited in patent US12037623B2, “Enzymatic synthesis of 4′-ethynyl nucleoside analogs” (priority 2018, dated 2024).

One series has as its system SIV. As to conditions: PBMC from rhesus macaque, 24 hr after drug administration.
The next series has as its system HIV infection. The conditions noted are these: humanized mouse models and SIV infected rhesus macaque model.
For series [1] the following is noted: oral; mouse and rhesus monkey.
The conditions of series [2]: pbmc.

Take `C#C[C@]1(CO)O[C@@H](n2cnc3c(N)nc(F)nc32)C[C@@H]1O` [EFdA, 4′-ethynyl-2-fluoro-2′-deoxyadenosine]: the “susceptibility of isolated PBMC to SIV infection” value in the series on SIV was “refractory to SIV infection”. Moreover, in the series on HIV infection, the “efficacy in animal models of HIV infection” value is “efficacy”. Besides, the “antiviral activity against clinical isolates” value with HIV (clinical isolates across all subtypes that have been evaluated) was “comparable antiviral activity”. Also, the antiretroviral activity entry in the series with HIV (in-vitro HIV replication assays) was “potent antiretroviral”. In series [1], the absorption entry was “rapid absorption” and the plasma concentrations entry was “high plasma concentrations”.
Regarding `C#C[C@]1(COP(=O)(O)OP(=O)(O)OP(=O)(O)O)O[C@@H](n2cnc3c(N)nc(F)nc32)C[C@@H]1O` [EFdA-TP, EFdA Triphosphate], the intracellular half-life result in series [2] was “exceeds 72 hrs”.
